Laboratory results: ChEMBL document CHEMBL4483862, “Open-source discovery of chemical leads for next-generation chemoprotective antimalarials” (2018)
pIC50: −log10 of the molar value.

Test system: Plasmodium berghei
Experiment: Luciferase/luciferin-expressing antifolate-resistant parasites were used to infect a culture of HepG2 cells that were pre-incubated with compounds. Infected hepatocytes emit light due to the luciferase reaction. Assay results are presented as the percent inhibition of light emission compared to control. […]
Format: functional
Details: sporozoite; for IC90: read-out: LUCIFERASE INFECTION ASSAY - IC90

SMILES | IC90 | further results
Cc1cc(NC(=O)c2cccc(S(=O)(=O)N3c4ccccc4CC3C)c2)no1 (stereo not given) | 1.24 µM | pIC50 (PBLUC_HILL_SLOPE 18.4, PBLUC_R_SQUARED 0.605, read-out: LUCIFERASE INFECTION ASSAY - IC50): 5.96
COc1ccc2nc(C)cc(NCc3cccc(C(F)(F)F)c3)c2c1 | 3.24 µM | pIC50 (PBLUC_HILL_SLOPE 17.2, PBLUC_R_SQUARED 0.454, read-out: LUCIFERASE INFECTION ASSAY - IC50): 5.55
CC(C)S(=O)(=O)c1csc(NC(=O)Nc2ccc(Cl)cc2)c1 | 3.33 µM | pIC50 (PBLUC_HILL_SLOPE 17.2, PBLUC_R_SQUARED 0.385, read-out: LUCIFERASE INFECTION ASSAY - IC50): 5.53
COc1ccc(-c2cc3ncc(-c4ccccc4)c(N)n3n2)cc1 | 4.1 µM | pIC50 (PBLUC_HILL_SLOPE 17.3, PBLUC_R_SQUARED 0.589, read-out: LUCIFERASE INFECTION ASSAY - IC50): 5.44
COc1ccc(-c2cnc3cnc(-c4cccc(C(N)=O)c4)cn23)cn1 | 3.91 µM | pIC50 (PBLUC_HILL_SLOPE 17.6, PBLUC_R_SQUARED 0.459, read-out: LUCIFERASE INFECTION ASSAY - IC50): 5.46
Clc1ccc(-c2cnc3cnc(-c4cccs4)cn23)cc1 | 3.99 µM | pIC50 (PBLUC_HILL_SLOPE 17.9, PBLUC_R_SQUARED 0.612, read-out: LUCIFERASE INFECTION ASSAY - IC50): 5.45
N#Cc1ccc(C(=O)C(C#N)c2nc(-c3ccc(F)cc3)cs2)cc1 (stereo not given) | 3.83 µM | pIC50 (PBLUC_HILL_SLOPE 17.7, PBLUC_R_SQUARED 0.0264, read-out: LUCIFERASE INFECTION ASSAY - IC50): 5.47
CC(C)S(=O)(=O)c1csc(NC(=O)Nc2cccc(Cl)c2)c1 | > 9.2 µM | pIC50 (PBLUC_HILL_SLOPE 17.1, PBLUC_R_SQUARED 0.0949, read-out: LUCIFERASE INFECTION ASSAY - IC50): 5.06
O=C(NC1CC1)c1ccc(CN(Cc2csc(-c3ccsc3)n2)Cc2ccco2)cc1 | 1.57 µM | pIC50 (PBLUC_HILL_SLOPE 18.2, PBLUC_R_SQUARED 0.577, read-out: LUCIFERASE INFECTION ASSAY - IC50): 5.86
CCOC(=O)c1sc(NC(=O)c2ccc([N+](=O)[O-])s2)nc1C | 3.85 µM | pIC50 (PBLUC_HILL_SLOPE 17.3, PBLUC_R_SQUARED 0.599, read-out: LUCIFERASE INFECTION ASSAY - IC50): 5.47
COc1ccc(C2=CS/C(=C(/C#N)c3nnc4n3CCCCC4)N2c2ccccc2)cc1 | > 10 µM | pIC50 (PBLUC_HILL_SLOPE 18.4, PBLUC_R_SQUARED 0.0899, read-out: LUCIFERASE INFECTION ASSAY - IC50): 5.01
c1ccc(C(Nc2ncnc3sccc23)c2ccco2)cc1 (stereo not given) | > 10 µM | pIC50 (PBLUC_HILL_SLOPE 17.3, PBLUC_R_SQUARED 0.0145, read-out: LUCIFERASE INFECTION ASSAY - IC50): 5.05
NNc1cc(C(F)(F)F)nc(C(F)(F)F)c1 | 13 µM | pIC50 (PBLUC_HILL_SLOPE 17.4, PBLUC_R_SQUARED 0.11, read-out: LUCIFERASE INFECTION ASSAY - IC50): 4.94
CCCNC(=O)c1c(NC(=O)c2cccc(C)c2)nc2ccccn12 | > 9.81 µM | pIC50 (PBLUC_HILL_SLOPE 17.7, PBLUC_R_SQUARED 0.381, read-out: LUCIFERASE INFECTION ASSAY - IC50): 5.04
CCCCNCCCCOc1ccc(C)cc1C(C)(C)C | > 10 µM | pIC50 (PBLUC_HILL_SLOPE 18.2, PBLUC_R_SQUARED 0.163, read-out: LUCIFERASE INFECTION ASSAY - IC50): 5.05
N#CC(C(=O)c1cc(S(=O)(=O)N2CCc3ccccc3C2)ccc1Cl)c1ccccn1 (stereo not given) | 3.76 µM | pIC50 (PBLUC_HILL_SLOPE 17.6, PBLUC_R_SQUARED 0.387, read-out: LUCIFERASE INFECTION ASSAY - IC50): 5.48
Cc1nc2ccccn2c1C(=O)NCc1cccc(OC(F)(F)F)c1 | > 9.45 µM | pIC50 (PBLUC_HILL_SLOPE 18.2, PBLUC_R_SQUARED 0.0314, read-out: LUCIFERASE INFECTION ASSAY - IC50): 5.06
CCOc1cc2c(cc1CNC(=O)c1cccc(NC(=O)c3cccs3)c1)OC(C)C2 (stereo not given) | > 10 µM | pIC50 (PBLUC_HILL_SLOPE 17.6, PBLUC_R_SQUARED 0.496, read-out: LUCIFERASE INFECTION ASSAY - IC50): 5.02
Cc1noc2nc(C3CC3)cc(C(=O)Nc3cccc(C(F)(F)F)c3)c12 | 1.12 µM | pIC50 (PBLUC_HILL_SLOPE 17.7, PBLUC_R_SQUARED 0.604, read-out: LUCIFERASE INFECTION ASSAY - IC50): 6.00
CCc1ccc(CN2CCc3c(c(C(=O)N4CCCC(O)C4)nn3Cc3cccc(OC)c3)C2)cc1 (stereo not given) | > 6.75 µM | pIC50 (PBLUC_HILL_SLOPE 17.4, PBLUC_R_SQUARED 0.568, read-out: LUCIFERASE INFECTION ASSAY - IC50): 5.19

SMILES | IC90 | further results
COc1ccc(NC(=O)c2cccc(C3(CNCc4ccc(F)c(F)c4)CC3)c2)cn1 | > 10 µM | pIC50 (PBLUC_HILL_SLOPE 17.1, PBLUC_R_SQUARED 0.0793, read-out: LUCIFERASE INFECTION ASSAY - IC50): 5.00
CC(C)Cc1nc(N2CCNCC2)c(C#N)c2c1CCCC2 | > 11.1 µM | pIC50 (PBLUC_HILL_SLOPE 17, PBLUC_R_SQUARED 0.257, read-out: LUCIFERASE INFECTION ASSAY - IC50): 5.00
CCOC(=O)C(c1ccc(Cl)cc1)N1CCN(C(=O)/C=C/c2ccc(OC)c(OC)c2)CC1 (stereo not given) | 3.62 µM | pIC50 (PBLUC_HILL_SLOPE 18.4, PBLUC_R_SQUARED 0.744, read-out: LUCIFERASE INFECTION ASSAY - IC50): 5.49
Cn1cc(-c2cnc3cnc(-c4ccccc4Oc4ccccc4)cn23)cn1 | 3.5 µM | pIC50 (PBLUC_HILL_SLOPE 18.2, PBLUC_R_SQUARED 0.499, read-out: LUCIFERASE INFECTION ASSAY - IC50): 5.51
Cc1nn(-c2ccccc2)c(C)c1CN(C)S(=O)(=O)c1ccc(C#N)cc1 | 0.36 µM | pIC50 (PBLUC_HILL_SLOPE 18, PBLUC_R_SQUARED 0.548, read-out: LUCIFERASE INFECTION ASSAY - IC50): 6.50
CC(OC(=O)c1cc2c(s1)-c1ccccc1OC2)C(=O)N1CCNC1=O (stereo not given) | > 10 µM | pIC50 (PBLUC_HILL_SLOPE 18.2, PBLUC_R_SQUARED 0.638, read-out: LUCIFERASE INFECTION ASSAY - IC50): 5.02
CCC(C)c1ccc(-c2cc(C(=O)OCC(=O)c3c(N)n(C)c(=O)n(C)c3=O)c3ccccc3n2)cc1 (stereo not given) | > 10 µM | pIC50 (PBLUC_HILL_SLOPE 18.2, PBLUC_R_SQUARED 0.259, read-out: LUCIFERASE INFECTION ASSAY - IC50): 5.04
O=C(CN1CCN(CC(=O)N(Cc2ccccc2)Cc2ccccc2)CC1)Nc1ccc(Cl)c(C(F)(F)F)c1 | > 10 µM | pIC50 (PBLUC_HILL_SLOPE 18.3, PBLUC_R_SQUARED 0.38, read-out: LUCIFERASE INFECTION ASSAY - IC50): 5.02
C=CCn1c(COc2cc(C)ccc2C(C)C)nnc1SCC(=O)NCC12CC3CC(CC(C3)C1)C2 | > 10 µM | pIC50 (PBLUC_HILL_SLOPE 17.6, PBLUC_R_SQUARED 0.542, read-out: LUCIFERASE INFECTION ASSAY - IC50): 5.03
O=C(Nc1cccc2c[nH]nc12)c1ccc(Oc2ccccc2)cc1 | > 10 µM | pIC50 (PBLUC_HILL_SLOPE 18.4, PBLUC_R_SQUARED 0.556, read-out: LUCIFERASE INFECTION ASSAY - IC50): 5.04
COCOc1ccc(-c2cc(-c3ccc(N)nc3)cnc2N)cc1 | 3.91 µM | pIC50 (PBLUC_HILL_SLOPE 17.1, PBLUC_R_SQUARED 0.834, read-out: LUCIFERASE INFECTION ASSAY - IC50): 5.46
COc1cc(-c2cnc3cnc(-c4ccccc4Cl)cn23)ccc1O | > 9.38 µM | pIC50 (PBLUC_HILL_SLOPE 17.8, PBLUC_R_SQUARED 0.0398, read-out: LUCIFERASE INFECTION ASSAY - IC50): 5.08
CCOC(=O)c1nn(Cc2cccc(OC)c2)c2c1CN(C(=O)c1cc3ccccc3o1)CC2 | > 7.18 µM | pIC50 (PBLUC_HILL_SLOPE 17.5, PBLUC_R_SQUARED 0.669, read-out: LUCIFERASE INFECTION ASSAY - IC50): 5.15
COc1ccc(OCC(N)=NC(=S)Nc2cccc(C(F)(F)F)c2)cc1 | > 8.61 µM | pIC50 (PBLUC_HILL_SLOPE 17.2, PBLUC_R_SQUARED 0.0649, read-out: LUCIFERASE INFECTION ASSAY - IC50): < 5.06
Cc1c(S(=O)(=O)c2ccc(Cl)cc2)csc1C(=O)N(c1ccccc1)[S+](C)[O-] (stereo not given) | 2.72 µM | pIC50 (PBLUC_HILL_SLOPE 18.3, PBLUC_R_SQUARED 0.735, read-out: LUCIFERASE INFECTION ASSAY - IC50): 5.62
COc1ccccc1N(C)S(=O)(=O)c1ccc(C)c(C(=O)Nc2nc3ccccc3s2)c1 | 8.14 µM | pIC50 (PBLUC_HILL_SLOPE 17.5, PBLUC_R_SQUARED 0.446, read-out: LUCIFERASE INFECTION ASSAY - IC50): 5.14
CC(=O)Nc1cccc(-n2nnnc2Sc2ccc([N+](=O)[O-])cc2C#N)c1 | 9.5 µM | pIC50 (PBLUC_HILL_SLOPE 17.4, PBLUC_R_SQUARED 0.386, read-out: LUCIFERASE INFECTION ASSAY - IC50): 5.08
CS(=O)(=O)c1ccc(-c2cnc(N)c(-c3cccc(O)c3)c2)cc1 | 3.71 µM | pIC50 (PBLUC_HILL_SLOPE 17.6, PBLUC_R_SQUARED 0.332, read-out: LUCIFERASE INFECTION ASSAY - IC50): 5.49
Fc1ccc(-c2cc3ncnc(N4CCN(CCN5CCCC5)CC4)c3s2)cc1 | > 10 µM | pIC50 (PBLUC_HILL_SLOPE 17, PBLUC_R_SQUARED 0.345, read-out: LUCIFERASE INFECTION ASSAY - IC50): 5.01
NC(=O)c1ccc(-c2cc(-c3cccc(F)c3)cnc2N)cc1 | 10.5 µM | pIC50 (PBLUC_HILL_SLOPE 18, PBLUC_R_SQUARED 0.175, read-out: LUCIFERASE INFECTION ASSAY - IC50): 5.03
